Results published in PMC6618152, “Abscisic acid is a substrate of the ABC transporter encoded by the durable wheat disease resistance gene Lr34” (The New Phytologist, 2019).

Legend:
[1] = biological target: T1, LR34res (Triticum aestivum, UniProt A0A9R1MFS8); test: inhibition of 3H-ABA uptake in yeast YMM12; type: cell-based; conditions: 20 min preincubation, then 10 min with labelled ABA; general ABC transporter inhibitor; allele in this panel not stated, taken as LR34res
T1 construct: gene CFC21_107174; full-length cDNA from p6U:cLr34res, C-terminal HA tag, in pNEV-N; expressed in Saccharomyces cerevisiae W303 and YMM12; predicted c; 160 kDa
T1 sequence (A0A9R1MFS8 1-1401): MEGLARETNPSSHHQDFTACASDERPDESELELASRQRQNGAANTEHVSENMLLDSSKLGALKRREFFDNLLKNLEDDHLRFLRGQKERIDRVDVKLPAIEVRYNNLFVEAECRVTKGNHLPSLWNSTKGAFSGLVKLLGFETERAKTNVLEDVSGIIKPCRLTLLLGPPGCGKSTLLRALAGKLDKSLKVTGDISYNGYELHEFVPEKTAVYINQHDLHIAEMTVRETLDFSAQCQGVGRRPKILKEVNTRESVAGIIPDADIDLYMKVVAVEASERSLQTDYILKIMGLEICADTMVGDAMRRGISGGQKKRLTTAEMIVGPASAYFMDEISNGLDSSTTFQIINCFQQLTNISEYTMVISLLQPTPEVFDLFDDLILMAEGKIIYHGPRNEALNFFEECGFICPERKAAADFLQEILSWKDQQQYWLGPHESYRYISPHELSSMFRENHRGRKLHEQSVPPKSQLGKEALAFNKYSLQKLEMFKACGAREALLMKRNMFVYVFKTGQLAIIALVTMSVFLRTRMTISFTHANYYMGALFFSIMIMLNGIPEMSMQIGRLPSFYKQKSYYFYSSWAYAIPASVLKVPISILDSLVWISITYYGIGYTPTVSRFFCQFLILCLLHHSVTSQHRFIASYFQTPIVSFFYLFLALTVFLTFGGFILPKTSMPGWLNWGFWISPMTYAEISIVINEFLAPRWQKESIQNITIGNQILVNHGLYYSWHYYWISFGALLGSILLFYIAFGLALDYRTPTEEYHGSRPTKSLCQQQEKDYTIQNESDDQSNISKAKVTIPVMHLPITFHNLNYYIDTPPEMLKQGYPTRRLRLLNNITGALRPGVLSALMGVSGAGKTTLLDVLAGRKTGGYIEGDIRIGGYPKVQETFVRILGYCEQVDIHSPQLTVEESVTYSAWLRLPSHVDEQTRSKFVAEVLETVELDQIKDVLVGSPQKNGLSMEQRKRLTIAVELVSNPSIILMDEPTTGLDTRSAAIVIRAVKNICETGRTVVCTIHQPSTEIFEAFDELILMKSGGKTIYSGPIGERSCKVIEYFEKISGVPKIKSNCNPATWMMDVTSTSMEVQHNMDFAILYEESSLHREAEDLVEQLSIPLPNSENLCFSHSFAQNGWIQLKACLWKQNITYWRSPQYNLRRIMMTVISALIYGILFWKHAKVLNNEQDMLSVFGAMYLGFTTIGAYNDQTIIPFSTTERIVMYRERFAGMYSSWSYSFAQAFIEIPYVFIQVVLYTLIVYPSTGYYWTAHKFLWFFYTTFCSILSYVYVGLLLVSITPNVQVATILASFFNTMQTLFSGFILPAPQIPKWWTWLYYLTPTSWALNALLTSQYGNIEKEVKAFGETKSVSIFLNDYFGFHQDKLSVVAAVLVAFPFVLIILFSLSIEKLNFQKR

[2] = biological target: T1, LR34res; test: competition of 3H-ABA uptake in LR34res-expressing yeast; type: cell-based; conditions: 50 nM labelled and unlabelled ABA mixture, 10 min, pH 6.3; competition for substrate binding suggested, not proven

Question: How did the “relative 3H-ABA accumulation (% of control)” value [1] turn out when `COc1ccc(Cl)cc1C(=O)NCCc1ccc(S(=O)(=O)NC(=O)NC2CCCCC2)cc1` [glibenclamide] was run?
Answer: The ABC transporter inhibitor glibenclamide

Question: For `C=C[C@](C)(O)CC[C@@H]1[C@@]2(C)CCCC(C)(C)[C@@H]2CC[C@@]1(C)O` [sclareol], which “% reduction of 3H-ABA uptake at 3 μM” value [2] is on record?
Answer: ~ 40%
